Measured values from patent US9488641B2, “Multicellular system and method for multiparametric analysis” (Case Western Reserve University, priority 2012, dated 2016).
“Also recorded” adds a separate entry of the source.

Tests used:
MCF7-R cells = assay: Oxygen concentration under MCF7-R model agar half spheroid measured with Au microdisc electrode array; pharmacological modulation of cellular oxygen consumption; type: cell-based; details: for Change of measured oxygen concentration after addition: 100 μm [sic] NaN3, 200 μm [sic] DNP; for Measured O2 concentration (%) after NaN3: 100 μM NaN3, representative experiment
Method: Confluent plates of MCF7-R cells ere trypsinized and collected in a sterile 1 mL vial. The cell density and the total number of cells in the vial were estimated by cell counting using a hematocytometer. The cells were spun down in a centrifuge and the supernant medium removed. […] The vial with the cell-agar mixture was constantly kept in water bath at 37° C. to prevent the agar from gelling. Tiny hemispherical droplets (800-1000 μm diameter) of this mixture were deposited onto a Teflon® sheet using 0.5-2.5 μL pipette (Eppendorf, Hauppauge, N.Y.) to obtain hemispherical multicellular model agar spheroids. The Teflon® sheet with the model agar half spheroids was incubated in culture medium used for MCF7-R cell culture at 37° C. in 5% CO2. Henceforth, model agar half spheroids will be referred to simply as half spheroids.
The Au microdisc electrodes were polished using a fine emery paper to expose fresh electrode surface before each experiment. The polished electrodes were rinsed with DI water and allowed to dry in air (˜1 hour) after which a thin (˜10 μm) layer (spacer) of cellulose acetate was deposited. The electrodes were pre-conditioned electrochemically prior to starting the half spheroid experiment by continuous cyclic voltammograms (CV) until a stable measurement was reached (at least 50 CVs). The electrodes were calibrated for oxygen reduction current in PBS at different oxygen concentrations prior to the half spheroid experiment (henceforth, referred to as pre-calibration). A half spheroid was positioned on top of the electrode array and the oxygen concentrations inside the spheroid interrogated by linear scan voltammetry (LSV). Oxygen reduction currents under the half spheroid were recorded for half an hour after which the viability of cells inside the half spheroid was checked by pharmacological modulation of cellular oxygen consumption by administering metabolic poisons—NaN3 and DNP. At the end of the experiment the spheroid was removed and current corresponding to ambient oxygen concentration was recorded. The spheroid experiment was followed by a post experiment calibration (henceforth, referred to as post-calibration) of the electrodes to check for electrode drift. The LSV data recorded during these experiments was post processed to extract oxygen concentration values under the spheroid.
The Teflon® sheet on which half spheroids are was is removed from the incubating medium. A half spheroid was carefully transferred onto the electrode array using a curved edge of a pair of tweezers such that the radial electrode array was aligned along a spheroid radius (FIG. 8E). The positioning was done under a 2× stereo microscope to ensure that the spheroid is resting on its flat (bottom) edge. After the agar spheroid was positioned at the desired location a drop of low gelling agarose made in PBS maintained in liquid form at 37° C. was dispensed onto the spheroid from the top to secure its position and prevent it from moving with convective flow. PBS was added to the measurement device reservoir immediately after the spheroid position was secured. The time taken to position the spheroid from the time the half spheroid Petri-dish was removed from the incubator to the time when oxygen measurement is started is less than 3 minutes. During this time the cells in the spheroid (except the outer most shell) were not directly exposed to air.
Desired volumes of the NaN3, DNP and glucose solutions were gently added to the test solution using a disposable transfer pipettes. The solution was then homogenized by gentle circular movements induced by the same pipette for ˜10 s.

[1] = test system: BAC1.2F5 macrophage cells; assay: Oxygen uptake by BAC1.2F5 macrophage cells measured with Pt microring electrode (pulse amperometry); type: cell-based, mouse
Method: A CHI 1030 8-channel potentiostat (CH Instruments Inc., Austin, TZ) was used to perform all electrochemical experiments: Cyclic Voltammetry (CV) and Pulse Amperometry (PA). The experimental setup was placed inside a custom built Faraday cage which was equipped with an XYZ stage for manipulation of the devices and a custom built thermostat to maintain the temperature inside the Faraday cage at 25° C. A Scion camera was mounted on top of the Faraday cage to visual observation of the sensing unit of interest. The microfabricated Pt microring electrode was used as the working electrode of the electrochemical cell. An Ag/AgCl reference and a Pt counter electrode were used to complete the cell.
Live mouse macrophage cells (BAC1.2F5) were used for cell experiments. Culture and disposal procedures of these cells are described by E1-Moatassim and Dubyak (el-Moatassim and Dubyak 1992) in detail.
A 100 μL drop of cell medium with suspended cells (105 BAC 1.2F5 mouse macrophages/mL) was gently added to the buffer with a disposable plastic pipette on top of the chip ˜5 mm from the targeted sensing unit. A simple hydrodynamic manipulation technique previously developed in our laboratory (Yoshida, Tohda et al. 2003) was then used to precisely position the selected cell(s) inside the targeted microring electrode.
˜500 μL of the required solution was added to the buffer using a disposable plastic pipette. The buffer was then homogenized by gentle circular movements induced by the same pipette for ˜10 seconds.
Continuous measurement will lead to sustained depletion of oxygen near the electrode. When cells are positioned near the electrodes this depletion of oxygen may perturb oxygen dependent cellular processes by decreasing the local availability of oxygen. To mitigate this undesirable effect, a pulse amperometry (PA) protocol was implemented. In this protocol the electrode potential is maintained at +0.5 V where no oxygen reduction occurs, before stepping to −0.55 V at which oxygen is reduced. The length of both pulses was chosen to be 250 ms. This restricts the time of depletion of oxygen to the cathodic pulses by allowing for replenishment of oxygen during the anodic pulses. This protocol ensures a sampling rate of 2 Hz that can assess metabolic processes occurring on the seconds time scale. Current proportional to local oxygen concentration is recorded and averaged at the end of each cathodic pulse for 50 ms. This recording period is long enough to obtain a representative value while also minimizing interference by 60 Hz noise.
To confirm that the observed variations in oxygen concentration indicated by the MEMS device reflect physiological processes of the cell(s), we performed another experiment where the metabolic rate of the cell(s) was pharmacologically modulated. […]

Structure (SMILES): O=C[C@H](O)[C@@H](O)[C@H](O)[C@H](O)CO [D-Glucose]
- Change of measured oxygen concentration after addition of glucose to the PBS (MCF7-R cells; 25 mM D-Glucose added to PBS after the glucose-deprivation increase (FIG. 35)): decrease

Structure (SMILES): O=[N+]([O-])c1ccc(O)c([N+](=O)[O-])c1 [DNP, 2,4 dinitrophenol]
- Change of measured oxygen concentration after addition (MCF7-R cells; 15% cell volume fraction spheroid (FIG. 30)): decreases
- Change of measured oxygen concentration after addition (MCF7-R cells; 15% cell volume fraction spheroid with 5% ambient pO2 (FIG. 34)): decreases
- Change of measured oxygen concentration after addition (MCF7-R cells; 15% cell volume fraction spheroid with 10% ambient pO2 (FIG. 33)): decreases
- Change of measured oxygen concentrations after addition (MCF7-R cells; 30% cell volume fraction half spheroid, ~20% ambient O2, 100 μM sodium azide, then 200 μM DNP (final concentrations)): decreased rapidly; also recorded: decreases
- Change of measured oxygen concentration after addition (MCF7-R cells; 30% cell volume fraction spheroid as printed (FIG. 31), non-zero oxygen core): decreases
- Oxygen consumption by the cells (MCF7-R cells; MCF7-R cells in half spheroid, 100 μM NaN3, subsequent 200 μM DNP (final concentrations)): rapid increase

Structure (SMILES): [N-]=[N+]=[N-] [NaN3, sodium azide]
- Measured O2 concentration (%) after NaN3 (MCF7-R cells; electrode E1, 610 μm from the center of the spheroid (outside spheroid), 30% cell volume fraction half spheroid): 15.9%
- Measured O2 concentration (%) after NaN3 (MCF7-R cells; electrode E2, 470 μm from the center of the spheroid, 30% cell volume fraction half spheroid): 14.3%
- Measured O2 concentration (%) after NaN3 (MCF7-R cells; electrode E3, 370 μm from the center of the spheroid, 30% cell volume fraction half spheroid): 10.8%
- Measured O2 concentration (%) after NaN3 (MCF7-R cells; electrode E4, 270 μm from the center of the spheroid, 30% cell volume fraction half spheroid): 9.9%
- Measured O2 concentration (%) after NaN3 (MCF7-R cells; electrode E5, 180 μm from the center of the spheroid, 30% cell volume fraction half spheroid): 9.6%

Structure (SMILES): C[C@@H]1O[C@@H](O[C@H]2C[C@@H](O)[C@]3(CO)[C@H]4[C@H](O)C[C@]5(C)[C@@H](C6=CC(=O)OC6)CC[C@]5(O)[C@@H]4CC[C@]3(O)C2)[C@H](O)[C@H](O)[C@H]1O [ouabain]
- Current higher than that recorded before administration of ouabain ([1]; cluster of 6 cells inside microring): ~1.7 nA
- Stabilized electrode current after addition of ouabain ([1]; cluster of 6 cells inside microring, ~7.1 nA before ouabain): ~8.8 nA
- Oxygen concentration corresponding to stabilized current after ouabain ([1]; cluster of 6 cells inside microring, ~9% before ouabain): ~15%
- Stationary local oxygen concentration immediately after administration of ouabain ([1]; representative of 3 experiments): increase
